For orientation: EC50 means the concentration at which the effect is half-maximal. A high value points to a less potent agent.

The assay deals with T1, Isoform 2 of Nuclear receptor ROR-gamma (RORgT) (Homo sapiens, UniProt P51449).
T1 sequence (P51449 whole entry): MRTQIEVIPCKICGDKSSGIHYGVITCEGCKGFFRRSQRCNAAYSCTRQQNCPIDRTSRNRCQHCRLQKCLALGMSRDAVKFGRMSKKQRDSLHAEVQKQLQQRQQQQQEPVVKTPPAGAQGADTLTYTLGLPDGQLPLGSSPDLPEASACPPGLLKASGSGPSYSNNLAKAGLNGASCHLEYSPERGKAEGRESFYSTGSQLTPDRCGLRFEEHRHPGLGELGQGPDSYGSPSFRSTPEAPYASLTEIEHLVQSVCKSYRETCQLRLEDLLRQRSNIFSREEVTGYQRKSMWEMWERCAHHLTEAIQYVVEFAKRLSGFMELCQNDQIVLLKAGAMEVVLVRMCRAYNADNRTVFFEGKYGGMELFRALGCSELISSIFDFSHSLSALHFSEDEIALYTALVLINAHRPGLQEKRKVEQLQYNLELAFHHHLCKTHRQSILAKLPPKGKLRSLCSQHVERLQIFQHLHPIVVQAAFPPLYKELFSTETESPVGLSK
Description: RORgamma Reporter Assay (Gal4). As to the method: The HEK293 cell line is co-transfected transiently with two plasmids, one with the RORγ ligand-binding domain fused to galactose-responsive transcription factor (Gal4), and the other with the luciferase reporter gene and Gal binding sites (UAS). This construction allows to determine the RORγ activity in a cellular system through the measurement of luminescence. A suspension of RORγ reporter cells was dispensed into plates and cultured 2 h at 37° C. and 5% CO2. Media formulation consisted in DMEM/F-12 medium (Gibco) supplemented with 10% heat inactivated FBS (Sigma-Aldrich), non-essential aminoacids (Sigma-Aldrich), 2 mM Glutamax (Gibco) and 100 U/mL penicillin (Sigma-Aldrich). Dose-response curves with compounds were prepared in 100% DMSO and further diluted 100-fold in culture medium. […] The following formula was used: activity=100*[1−[x test compound/average vehicle] where the theoretical minimum reduction (0% reduction).

Consider `CN(Cc1cccc(C#N)c1)c1ncnc(NC[C@H]2CCN(CC(N)=O)C[C@@H]2O)c1F` [US20230271937, Example F2-08], for which it took 700 nM to reach a half-maximal effect (EC50).

These data come from BindingDB's records for patent US20230271937 (Nuevolution, 2023).
